Key:
[1] = Antiproliferative activity against human EPG85-257RDB cells after 5 days by SRB assay; assay type: functional, cell-based; conditions: 120 h
[2] = Resistance index, ratio IC50 for human EPG85-257RDB cells to IC50 for human EPG85-257 cells; assay type: functional
[3] = Antiproliferative activity against human EPP85-181RN cells after 5 days by SRB assay; assay type: functional, cell-based; conditions: 120 h
[4] = Resistance index, ratio IC50 for human EPP85-181RN cells to IC50 for human EPP85-181P cells; assay type: functional
[5] = Antiproliferative activity against human EPP85-181RDB cells after 5 days by SRB assay; assay type: functional, cell-based; conditions: 120 h
[6] = Resistance index, ratio IC50 for human EPP85-181RDB cells to IC50 for human EPP85-181P cells; assay type: functional

Compound: C=C1[C@H](OC(=O)C(C)C)[C@@H](OC(=O)C(C)C)[C@@H](OC(=O)c2cccnc2)C(C)(C)[C@H](O)[C@H]2O[C@@]3(C[C@H](C)[C@H](OC(C)=O)[C@@H]3[C@H]1OC(C)=O)C(=O)[C@H]2C
- IC50 [1]: 17.2 µM
- Ratio IC50 [2]: 0.6

Compound: C=C1[C@H](OC(=O)C(C)C)[C@@H](OC(=O)C(C)C)[C@@H](OC(=O)c2cccnc2)C(C)(C)[C@H]2O[C@@H]2[C@@H](C)C(=O)[C@@]2(O)C[C@H](C)[C@H](OC(C)=O)[C@@H]2[C@H]1OC(C)=O
- IC50 [1]: 3.6 µM
- Ratio IC50 [2]: 0.1
- IC50 [3]: 21.3 µM
- Ratio IC50 [4]: 0.7
- IC50 [5]: 18.2 µM
- Ratio IC50 [6]: 0.6
